Measurements reported in ChEMBL document CHEMBL2401655, “Synthesis and antiprotozoal activity of novel 2-{[2-(1H-imidazol-1-yl)ethyl]sulfanyl}-1H-benzimidazole derivatives” (Bioorg Med Chem Lett, 2013).

Columns and labels:
Format in all cases: functional, organism-based
Entamoeba histolytica = assay: Antiprotozoal activity against trophozoite stage of Entamoeba histolytica HM-1:IMSS assessed as growth inhibition after 48 hrs by haemocytometric analysis
Giardia intestinalis = assay: Antiprotozoal activity against trophozoite stage of Giardia intestinalis IMSS:0981:1 assessed as growth inhibition after 48 hrs by haemocytometric analysis; settings: Giardia duodenalis, IMSS:0981:1, 48 h
Trichomonas vaginalis = assay: Antiprotozoal activity against trophozoite stage of Trichomonas vaginalis GT3 assessed as growth inhibition after 48 hrs by haemocytometric analysis; settings: GT3, 48 h

Row | SMILES | IC50 (Entamoeba histolytica) | IC50 (Giardia intestinalis) | IC50 (Trichomonas vaginalis)
1 | CCOc1cc2nc(SCCn3ccnc3)[nH]c2cc1Cl | 62 nM | 46.5 nM | 99.1 nM
2 | COC(=O)c1cc2nc(SCCn3ccnc3)n(C)c2cc1Cl | 51.3 nM | 44.2 nM | 92.6 nM
3 | Clc1cc2nc(SCCn3ccnc3)[nH]c2cc1Cl | 59.1 nM | 76.6 nM | 140 nM
4 | Cn1c(SCCn2ccnc2)nc2ccc(Cl)cc21 | 67.2 nM | 62.6 nM | 128 nM
5 | c1ccc2[nH]c(SCCn3ccnc3)nc2c1 | 147 nM | 117 nM | 178 nM
6 | COC(=O)c1cc2nc(SCCn3ccnc3)[nH]c2cc1Cl | 57.9 nM | 54.9 nM | 72.7 nM
7 | CCOc1ccc2nc(SCCn3ccnc3)n(C)c2c1 | 40.8 nM | 45.2 nM | 71.7 nM
8 | Clc1ccc2[nH]c(SCCn3ccnc3)nc2c1 | 73.5 nM | 80.7 nM | 170 nM
9 | COC(=O)c1ccc2c(c1)nc(SCCn1ccnc1)n2C | 42.7 nM | 61.6 nM | 77.4 nM
10 | Cn1c(SCCn2ccnc2)nc2cc(Cl)c(Cl)cc21 | 64.2 nM | 68.8 nM | 96.3 nM
11 | CCOc1cc2c(cc1Cl)nc(SCCn1ccnc1)n2C | 46 nM | 35.6 nM | 69.8 nM
12 | Cn1c(SCCn2ccnc2)nc2ccccc21 | 77.4 nM | 87.1 nM | 149 nM
13 | Cc1ncc([N+](=O)[O-])n1CCO [METRONIDAZOLE] | 380 nM | – | –
14 | CCOc1ccc2[nH]c(SCCn3ccnc3)nc2c1 | 42.8 nM | 56.6 nM | 71.7 nM
15 | COC(=O)c1ccc2[nH]c(SCCn3ccnc3)nc2c1 | 61.2 nM | 77.7 nM | 111 nM
16 | COC(=O)c1ccc2nc(SCCn3ccnc3)n(C)c2c1 | 52.2 nM | 56.9 nM | 114 nM
17 | COC(=O)c1cc2c(cc1Cl)nc(SCCn1ccnc1)n2C | 42.8 nM | 55.6 nM | 86.9 nM
18 | CCOc1cc2nc(SCCn3ccnc3)n(C)c2cc1Cl | 14.8 nM | 20.8 nM | 98 nM
19 | Cn1c(SCCn2ccnc2)nc2cc(Cl)ccc21 | 66 nM | 66.6 nM | 135 nM
20 | CCOc1ccc2c(c1)nc(SCCn1ccnc1)n2C | 29.8 nM | 8.3 nM | 76.1 nM
